Test results from the supplement of paper PMC10307832.

Key:
Assay in all cases: relative viability (nuclei count vs DMSO), 5 days (fraction); higher = more cells survive
[1] = compound: CCC1=CN=CN=C1N2CCN(CC2)CC3=NC4=C(N3)C=C(C=C4)C(F)(F)F + CC(C)C[C@H](NC(=O)[C@H](Cc1ccccc1)NC(=O)c1cnccn1)B(O)O [Bortezomib] (partner 0.002 µM)
Procedure, shortened: (§1)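 Values are medians from duplicate plates. Each reflects relative viability, defined as the nuclei count of treated wells over that of vehicle wells. Lung cancer cell lines in 1536-well plates were pin-tool dosed one day after seeding with one drug alone or with a fixed anchor-drug dose plus five library-drug doses (not always all listed) in √10 steps, then fixed, stained and imaged at 4× after 5 days.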

[2] = compound: CCn1c(-c2nonc2N)nc2cnc(Oc3cccc(NC(=O)c4ccc(OCCN5CCOCC5)cc4)c3)cc21 + CC(C)C[C@H](NC(=O)[C@H](Cc1ccccc1)NC(=O)c1cnccn1)B(O)O [Bortezomib] (partner 0.002 µM)
Procedure, shortened: as §1

[3] = compound: CCn1c(-c2nonc2N)nc2cnc(Oc3cccc(NC(=O)c4ccc(OCCN5CCOCC5)cc4)c3)cc21 + C[C@@H](Oc1cc(-c2cnn(C3CCNCC3)c2)cnc1N)c1c(Cl)ccc(F)c1Cl [Crizotinib] (partner 1 µM)
Procedure, shortened: as §1

[4] = compound: CCn1c(-c2nonc2N)nc2cnc(Oc3cccc(NC(=O)c4ccc(OCCN5CCOCC5)cc4)c3)cc21 + Cc1nc(Nc2ncc(C(=O)Nc3c(C)cccc3Cl)s2)cc(N2CCN(CCO)CC2)n1 [Dasatinib] (partner 0.075 µM)
Procedure, shortened: as §1

Cell Line	relative viability ([1]; first compound 0.04 µM)	relative viability ([1]; first compound 0.1265 µM)	relative viability ([1]; first compound 0.4 µM)	relative viability ([1]; first compound 1.265 µM)	relative viability ([1]; first compound 4 µM)	relative viability ([2]; first compound 0.04 µM)	relative viability ([2]; first compound 0.1265 µM)	relative viability ([2]; first compound 0.4 µM)	relative viability ([2]; first compound 1.265 µM)	relative viability ([2]; first compound 4 µM)	relative viability ([3]; first compound 0.04 µM)	relative viability ([3]; first compound 0.1265 µM)	relative viability ([3]; first compound 0.4 µM)	relative viability ([3]; first compound 1.265 µM)	relative viability ([3]; first compound 4 µM)	relative viability ([4]; first compound 0.04 µM)	relative viability ([4]; first compound 0.1265 µM)	relative viability ([4]; first compound 0.4 µM)	relative viability ([4]; first compound 1.265 µM)	relative viability ([4]; first compound 4 µM)
NCI-H838	0.945	0.747	0.782	0.597	1.03	0.729	0.397	0.319	0.385	0.31	0.725	0.427	0.466	0.272	0.228	0.314	0.192	0.199	0.208	0.183
HARA	1.12	1.05	1.06	1.01	0.964	1.19	0.943	0.36	0.176	0.145	1.15	1.08	1.1	0.335	0.241	0.243	0.213	0.124	0.0816	0.074
NCI-H23	0.868	1.13	0.905	0.98	1.16	1.44	1.16	–	0.856	0.512	0.812	0.82	–	0.439	0.305	0.927	0.758	0.294	0.611	0.543
LCLC-97TM1	–	0.516	0.598	0.668	0.942	0.662	0.896	0.397	–	0.247	0.278	0.524	–	0.427	0.596	0.969	0.929	0.673	0.99	0.811
LC-2-ad	0.993	0.959	0.969	0.963	0.952	1.1	0.936	0.756	0.448	0.281	0.52	0.478	0.435	–	0.347	0.957	0.717	0.343	0.309	0.479
SW 1573	1.09	1.08	0.937	0.893	0.892	0.984	1.04	0.871	0.575	0.41	0.874	0.704	0.707	0.519	0.391	0.597	0.319	0.21	0.246	0.166
EKVX	0.994	0.945	0.983	0.952	1.13	1.22	1.05	0.902	0.932	1.02	1.14	0.994	0.893	0.724	0.788	0.565	0.277	0.434	0.457	0.427
NCI-H2087	0.859	0.805	0.824	0.65	0.766	–	0.591	0.778	0.473	0.459	–	0.591	0.678	0.522	0.336	0.866	0.673	0.544	0.558	0.63
HCC-827	1.01	0.997	1.02	0.95	0.953	0.99	1.04	0.906	0.666	0.885	0.913	0.903	0.951	0.892	0.803	0.24	0.328	0.459	0.484	0.424
NCI-H661	0.845	0.809	0.696	–	0.782	0.896	0.865	0.815	0.608	0.616	0.993	1.05	1.13	0.694	0.86	0.672	0.519	0.593	0.422	0.426
CAL-12T	–	0.997	0.888	1.06	1.07	1.23	1.08	0.834	–	0.678	0.74	0.5	0.371	0.298	0.215	0.39	0.43	0.267	0.276	0.157
NCI-H2342	–	–	–	–	–	–	–	–	–	–	–	–	–	–	–	0.332	0.319	0.294	0.289	0.302
SW 900	–	–	–	–	–	–	–	–	–	–	–	–	–	–	–	0.413	0.456	0.312	0.42	0.41
IA-LM	0.786	0.911	0.761	0.752	0.702	1.31	0.972	0.99	0.795	0.811	1.01	0.831	0.859	0.699	0.758	–	–	–	–	–
EPLC-272H	0.696	0.885	0.829	1.43	1.08	1.02	1.21	0.841	0.645	0.783	1.24	1.12	0.83	0.871	0.932	0.513	0.326	0.159	0.263	0.227
A-427	0.926	0.896	0.936	0.878	0.989	1.16	0.952	0.892	0.946	0.475	0.966	1.08	0.846	0.998	0.879	0.694	0.487	0.375	0.269	0.224
NCI-H650	0.68	0.797	0.672	0.841	0.959	1.14	0.631	0.349	0.295	0.374	0.838	0.758	0.432	0.388	0.339	0.4	0.317	0.216	0.248	0.276
NCI-H1975	0.449	0.341	0.363	0.335	0.318	0.244	0.263	0.227	0.177	0.165	0.933	0.788	0.864	0.279	0.218	0.309	0.268	0.186	0.18	0.142
